This is an account of results in ChEMBL document CHEMBL4665693, “Amentotaxins C-V, Structurally Diverse Diterpenoids from the Leaves and Twigs of the Vulnerable Conifer Amentotaxus argotaenia and Their Cytotoxic Effects” (J Nat Prod, 2020).

SMILES strings stand for the structures. pIC50: −log10 of the molar value.

Holding throughout (assay type): functional, cell-based
One experiment relates to HCT-116. Put plainly: Cytotoxicity against human HCT-116 cells assessed as reduction in cell viability incubated for 48 hrs by MTT assay. Particulars: HCT-116, 48 h. (In general: Formazan colour is commonly taken as a measure of viable cells.)
For another experiment, the system named is Huh-7. Put plainly: Cytotoxicity against human Huh-7 cells assessed as reduction in cell viability incubated for 48 hrs by MTT assay. The conditions noted are these: Huh-7, 48 h.
In the next experiment the test system is SK-OV-3. Put plainly: Cytotoxicity against human SK-OV-3 cells assessed as reduction in cell viability incubated for 48 hrs by MTT assay. The conditions noted are these: SK-OV-3, 48 h.
The next experiment concerns MDA-MB-231. Put plainly: Cytotoxicity against human MDA-MB-231 cells assessed as reduction in cell viability incubated for 48 hrs by MTT assay. Particulars: MDA-MB-231, 48 h.
A further experiment deals with A549. Put plainly: Cytotoxicity against human A549 cells assessed as reduction in cell viability incubated for 48 hrs by MTT assay. The conditions noted are these: A549, 48 h.
The subject of another experiment is HeLa. Briefly: Cytotoxicity against human HeLa cells assessed as reduction in cell viability incubated for 48 hrs by MTT assay.

For the compound `C=C1[C@H](O)C[C@@H]2[C@@](C)(CO)CCC[C@@]2(C)[C@@H]1C/C=C(\C)C=O`, the pIC50 with HCT-116 is < 5.00; with Huh-7, < 5.00; in the experiment with SK-OV-3 it was < 5.00; with MDA-MB-231, 5.82; in the experiment with A549, < 5.00; in the experiment on HeLa it was < 5.00.

In the case of `C=C1C(=O)[C@]23CC[C@H]4[C@@](C)(CC[C@@H](O)[C@@]45CO5)[C@@H]2CC[C@H]1C3`, the pIC50 in the experiment with HCT-116 was 5.72; with Huh-7, 5.39; in the experiment with SK-OV-3 it was 5.54; with MDA-MB-231 it was 5.17; with A549, 5.01; with HeLa, 5.29.

Consider `C=C1[C@H](O)C[C@@H]2[C@@](C)(CO)CCC[C@@]2(C)[C@@H]1C[C@H]1OC(=O)C=C1C`, for which the pIC50 in the experiment with HCT-116 is < 5.00; in the experiment on Huh-7, < 5.00; in the experiment on SK-OV-3 it was < 5.00; in the experiment with MDA-MB-231 it was 5.80; in the experiment with A549, < 5.00; in the experiment on HeLa it was < 5.00.

As to `C=C1C(=O)[C@]23CC[C@@H]4[C@@](C)(CO)CCC[C@@]4(C)[C@@H]2CC[C@H]1C3`, the pIC50 in the experiment with HCT-116 was 5.54; in the experiment with Huh-7, 5.01; with SK-OV-3 it was 5.16; with MDA-MB-231, 5.00; with A549 it was 5.09; in the experiment on HeLa, < 5.00.

Consider `CC(C)c1cc2c(cc1O)[C@@]1(C)CC[C@H](O)C(C)(C)[C@@H]1CC2=O`, for which the pIC50 in the experiment on HCT-116 is < 5.00; with Huh-7, < 5.00; in the experiment with SK-OV-3 it was < 5.00; in the experiment on MDA-MB-231, 5.80; in the experiment on A549, < 5.00; with HeLa, < 5.00.

As for `C=C1C[C@@]23C[C@@H]1CC[C@H]2[C@]1(C)CCC[C@@](C)(C(=O)O)[C@H]1[C@@H](O)[C@@H]3O`, the pIC50 with HCT-116, with Huh-7, in the experiment with SK-OV-3, with MDA-MB-231, in the experiment on A549 and in the experiment with HeLa was < 5.00 throughout.

Consider `C=C1[C@H](O)C[C@@H]2[C@@](C)(CO)CCC[C@@]2(C)[C@@H]1/C=C/C(C)=O`, for which the pIC50 in the experiment with HCT-116 was < 5.00; in the experiment on Huh-7, < 5.00; in the experiment on SK-OV-3, < 5.00; in the experiment on MDA-MB-231, 5.52; in the experiment on A549, < 5.00; in the experiment on HeLa, < 5.00.

Turning to `CC(=O)O[C@H]1C(=O)[C@@]2(C)[C@H]([C@H](OC(=O)c3ccccc3)[C@]3(O)C[C@H](OC(=O)[C@H](O)[C@@H](NC(=O)c4ccccc4)c4ccccc4)C(C)=C1C3(C)C)[C@]1(OC(C)=O)CO[C@@H]1C[C@@H]2O` [PACLITAXEL], the pIC50 in the experiment on Huh-7 was 8.30; with HeLa, 8.40.

One may read the pIC50 as −log10 of the IC50, conventionally taken in molar units.
